This note sets out measurements from ChEMBL document CHEMBL4433239, “Synthesis of N'-propylhydrazide analogs of hydroxamic inhibitors of histone deacetylases (HDACs) and evaluation of their impact on activities of HDACs and replication of hepatitis C virus (HCV)” (Bioorg Med Chem Lett, 2019).

Series [1] in a line: Cytotoxicity against human HuH7 cells assessed as reduction in cell viability incubated for 3 days by MTT assay. The series is classed as cell-based, Huh-7. (In general: Formazan colour is commonly taken as a measure of viable cells.)
In a further series the test system is Hepatitis C virus. As to the kind of experiment: Antiviral activity against HCV infected in human HuH7-luc/neo cells assessed as inhibition of DNA replication incubated for 3 days by luciferase reporter gene assay. The class given is functional, organism-based, Hepacivirus hominis. The conditions noted are these: 72 h. A general note: Reporter assays use an easily measured gene product as a stand-in for the process of interest.

Series [2] in a line: Therapeutic index, ratio of CC50 for human HuH7 cells to EC50 for antiviral activity against HCV infected in human HuH7-luc/neo cells assessed as inhibition of DNA replication i.
In series [3] the target is Histone deacetylase 3 (Homo sapiens) (UniProt O15379). As to the kind of experiment: Inhibition of HDAC3 in human Huh7-luc/neo cells assessed as increase in histone H3 K9 acetylation incubated for 24 hrs by Western blot analysis. A general note: In western blotting, separated proteins are transferred to a membrane and probed.
For series [4], the target named is T1, Protein deacetylase HDAC6 (Homo sapiens, UniProt Q9UBN7).
T1 sequence (Q9UBN7 whole entry): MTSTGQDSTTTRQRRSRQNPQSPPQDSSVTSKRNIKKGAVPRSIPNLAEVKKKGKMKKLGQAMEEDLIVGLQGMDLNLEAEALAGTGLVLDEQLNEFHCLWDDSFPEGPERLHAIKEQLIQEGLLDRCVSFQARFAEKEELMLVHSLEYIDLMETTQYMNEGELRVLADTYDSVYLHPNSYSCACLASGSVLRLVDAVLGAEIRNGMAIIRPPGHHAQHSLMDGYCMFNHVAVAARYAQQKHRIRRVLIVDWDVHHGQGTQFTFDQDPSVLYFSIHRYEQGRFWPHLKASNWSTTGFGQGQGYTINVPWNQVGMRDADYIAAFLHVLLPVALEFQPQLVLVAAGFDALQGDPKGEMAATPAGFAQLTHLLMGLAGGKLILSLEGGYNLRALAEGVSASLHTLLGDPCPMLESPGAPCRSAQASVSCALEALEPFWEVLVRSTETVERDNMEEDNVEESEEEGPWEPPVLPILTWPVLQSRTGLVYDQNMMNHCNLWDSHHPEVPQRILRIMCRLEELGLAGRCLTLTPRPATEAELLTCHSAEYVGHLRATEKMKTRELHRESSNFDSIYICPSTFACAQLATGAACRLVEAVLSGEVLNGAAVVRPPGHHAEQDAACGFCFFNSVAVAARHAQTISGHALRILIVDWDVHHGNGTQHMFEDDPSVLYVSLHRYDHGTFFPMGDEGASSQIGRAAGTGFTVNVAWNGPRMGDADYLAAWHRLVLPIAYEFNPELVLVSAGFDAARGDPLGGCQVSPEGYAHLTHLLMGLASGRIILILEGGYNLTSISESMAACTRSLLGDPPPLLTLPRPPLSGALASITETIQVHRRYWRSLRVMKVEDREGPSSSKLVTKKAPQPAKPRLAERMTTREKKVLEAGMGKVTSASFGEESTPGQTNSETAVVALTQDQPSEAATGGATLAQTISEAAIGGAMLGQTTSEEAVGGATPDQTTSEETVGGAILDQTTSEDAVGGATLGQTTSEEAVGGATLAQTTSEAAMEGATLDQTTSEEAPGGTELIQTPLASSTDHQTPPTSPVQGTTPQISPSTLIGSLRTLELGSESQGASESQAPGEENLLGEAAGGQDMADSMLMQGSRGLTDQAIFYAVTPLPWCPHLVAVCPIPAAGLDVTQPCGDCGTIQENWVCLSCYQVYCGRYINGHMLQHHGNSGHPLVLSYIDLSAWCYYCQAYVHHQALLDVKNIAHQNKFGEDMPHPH
As to the kind of experiment: Inhibition of human recombinant HDAC 6 by HDAC-Glo luminescent assay.

[5] abbreviates: HuH7 cells (CC50) and HCV-infected HuH7-luc/neo cells (EC50).

SMILES strings stand for the structures. pEC50, pIC50: −log10 of the molar value. Calls of active or inactive are those of the source. No cut-off for these calls is given here.

Sequence of Histone deacetylase 3 (Homo sapiens) (O15379 whole entry): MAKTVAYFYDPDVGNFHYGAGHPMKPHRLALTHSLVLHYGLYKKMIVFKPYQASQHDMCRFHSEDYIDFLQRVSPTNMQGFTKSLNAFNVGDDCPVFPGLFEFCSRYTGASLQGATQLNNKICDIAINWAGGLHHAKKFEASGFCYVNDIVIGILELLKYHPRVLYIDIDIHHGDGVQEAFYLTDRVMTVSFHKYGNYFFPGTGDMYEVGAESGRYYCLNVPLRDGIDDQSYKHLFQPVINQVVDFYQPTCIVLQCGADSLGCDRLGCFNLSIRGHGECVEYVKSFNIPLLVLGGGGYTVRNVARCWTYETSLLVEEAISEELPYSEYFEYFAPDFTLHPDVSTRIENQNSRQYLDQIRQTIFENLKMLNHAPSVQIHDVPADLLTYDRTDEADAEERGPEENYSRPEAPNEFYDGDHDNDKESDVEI

One may read the CC50 as the concentration that lowers cell viability or growth by half. The term pEC50 denotes the EC50 on a negative log10 scale, so that one unit is a factor of ten. In the case of `CCCNNC(=O)CCc1ccccc1`, the CC50 at 72 h in series [1] amounted to 96 µM. In addition, in the series with Hepatitis C virus, the pEC50 is 5.42. Also, in series [2] (setting [5]), the selectivity ratio came to 25.

For the molecule `CNNC(=O)c1ccccc1`, in series [1], the CC50 at 72 h is over 1000 µM.

As for `CCCNNC(=O)c1ccccc1`, the cytotoxic concentration (CC50) at 72 h in series [1] was 120 µM. Further, in the series with Hepatitis C virus, the pEC50 is 5.26. Moreover, the selectivity ratio in series [2] (setting [5]) was 22.

With `O=C(/C=C/c1ccccc1)NO`, the CC50 at 72 h in series [1] worked out at 20 µM. Further, the pEC50 in the series with Hepatitis C virus was 5.70. Besides, the selectivity ratio in series [2] worked out at 10.

On to `CCCNNC(=O)/C=C/c1ccccc1`, for which, in series [1], the CC50 at 72 h turned out to be 18 µM. Besides, the negative logarithm of the EC50 (pEC50) in the series with Hepatitis C virus was 5.27. Moreover, the selectivity ratio in series [2] (setting [5]) is 3.3.

As for `CCCNNC(=O)/C=C/c1cccc(S(=O)(=O)Nc2ccccc2)c1`, in series [1], the half-maximal cytotoxic concentration (CC50) at 72 h turned out to be 0.68 µM. In the series with Hepatitis C virus, the negative logarithm of the EC50 (pEC50) was 6.26. Also, the selectivity ratio in series [2] (setting [5]) came to 1.2.

On to `Cc1nc2ccccc2n1Cc1ccc(C(=O)NO)cc1`, for which the CC50 at 72 h in series [1] turned out to be 7.9 µM. Besides, the negative logarithm of the EC50 (pEC50) in the series on Hepatitis C virus was 6.57. In addition, the selectivity ratio in series [2] (setting [5]) turned out to be 29.

In the case of `CN1CCc2c(c3ccccc3n2Cc2ccc(C(=O)NO)cc2)C1` [TUBASTATIN A], the half-maximal cytotoxic concentration (CC50) at 72 h in series [1] was […]. Moreover, the pEC50 with Hepatitis C virus is 6.52. In addition, the selectivity ratio in series [2] stood at […].

`O=C(CCc1ccccc1)NO`: in series [1], the CC50 at 72 h was determined as 110 µM. The pEC50 with Hepatitis C virus was 5.28. Further, the selectivity ratio in series [2] (setting [5]) was found to be 21.

As for `O=C(NO)C1c2ccccc2Oc2ccccc21`, the CC50 at 72 h in series [1] was found to be 300 µM. The pEC50 in the series with Hepatitis C virus is 6.12. Further, the selectivity ratio in series [2] (setting [5]) was found to be 400.

As for `CCCNNC(=O)c1ccc(Cn2c(C)nc3ccccc32)cc1`, the CC50 at 72 h in series [1] amounted to 9.9 µM. In the series on Hepatitis C virus, the pEC50 was 7.60. The selectivity ratio in series [2] (setting [5]) worked out at 400.

Consider `O=C(CCCCCCC(=O)Nc1ccccc1)NO` [VORINOSTAT], for which the 50% cytotoxic concentration (CC50) at 72 h in series [1] is 0.64 µM.

Turning to `O=C(NCC1(c2nc(-c3ccccc3)cs2)CCOCC1)c1cccc(-c2noc(C(F)(F)F)n2)c1`, in series [1], the cytotoxic concentration (CC50) at 72 h was 83 µM. In addition, the inhibition entry in series [3] is “Active”. The pEC50 with Hepatitis C virus is 5.35. The selectivity ratio in series [2] stood at 18.

For orientation: pIC50 means −log10 of the IC50, conventionally taken in molar units. `N[C@H](Cc1ccc(Cl)cc1Cl)C(=O)N1Cc2ccccc2C1`: the pIC50 in series [4] is 4.52.

`CCCNNC(=O)c1ccc(-c2ccccc2)cc1`: the CC50 at 72 h in series [1] amounted to 5.9 µM. Besides, the pEC50 in the series on Hepatitis C virus is 5.82. Besides, the selectivity ratio in series [2] (setting [5]) was 3.9.

With `O=C(NO)c1ccc(-c2ccccc2)cc1`, the CC50 at 72 h in series [1] came out at 30 µM. Further, the pEC50 in the series with Hepatitis C virus was 6.40. Moreover, the selectivity ratio in series [2] (setting [5]) is 75.

Regarding `CCCNNC(=O)C1c2ccccc2Oc2ccccc21`, the CC50 at 72 h in series [1] was over 300 µM.

For the molecule `CCCNNC(=O)CCCCCCC(=O)Nc1ccccc1`, in series [1], the CC50 at 72 h was determined as 7 µM. Further, the pEC50 with Hepatitis C virus was 5.89. In addition, the selectivity ratio in series [2] (setting [5]) is 5.4.

For `CCNNC(=O)c1ccccc1`, the cytotoxic concentration (CC50) at 72 h in series [1] was over 1000 µM.

For the molecule `CCCNNC(=O)c1ccc(Cn2c3c(c4ccccc42)CN(C)CC3)cc1`, the CC50 at 72 h in series [1] came out at 5.3 µM. In addition, the pEC50 with Hepatitis C virus is 6.62. Moreover, the selectivity ratio in series [2] (setting [5]) is 22.

`O=C(/C=C/c1cccc(S(=O)(=O)Nc2ccccc2)c1)NO` [BELINOSTAT]: the CC50 at 72 h in series [1] worked out at 0.65 µM. In addition, the pEC50 in the series with Hepatitis C virus is 6.72.
